SMILES strings stand for the structures. Like-named read-outs stand apart in the source and are kept apart here.

The test system of data set [1] is human colon cancer cell lines: HCT 116, SW620, LoVo, Caco-2, and HT-29. Description: MTT cell viability assay, statements across the panel. The settings on record: range over the cancer cell lines, read-out: IC50 range against colon cancer cell lines. Type of data set: cell-based. The procedure:
The cytotoxic activity of the 3-benzylideneflavanones, 3-benzylidenechromanones derivatives (compounds 1, 2, 3, 4, 5) and 5′-(3-methoxyphenyl)-2-phenyl-4′,5′-dihydro-4H-spiro[chromano-3,3′-pirazol]-4-one (compound 3a) was evaluated using the MTT assay (4,5-dimethylthiazol-2-yl)-2,5-diphenyltetrazoliumbromide), a colorimetric method that quantifies cell viability. […] These IC50 values were subsequently used for all experiments investigating the anticancer activity of the flavanone/chromanone derivatives in this study.
(§1) Cell viability was determined using the metabolic microplate spectrophotometric assay with Methylthiazolyl diphenyltetrazolium bromide (MTT) (Sigma-Aldrich; St. Louis, MO, USA). The MTT method belongs to metabolic tests for determining cell viability and consists of measuring the absorbance of a violet solution of formazan, a product of the reduction of a water-soluble yellow MTT by oxidoreductive enzymes (mainly mitochondrial succinate dehydrogenase) of living cells. The amount of the reaction product (water-insoluble formazan crystals) is proportional to the number of living and metabolically active cells in the sample. In the case of damaged or dead cells, formazan is formed in smaller amounts, or it is not formed.
The appropriate number of cells for a given cell line (6–8 × 10^3 cells/mL) were seeded onto colorless, sterile 96-well microplates (Nunc, Roskilde, Denmark) in the number appropriate for a given cell line. After 24 h of culture, various concentrations of the studied compounds (10^−7–10^−5 M) freshly prepared in DMSO (final concentration DMS < 0.1%) and diluted with complete culture medium were added and incubated in a CO2 incubator for 24 h. After this time, the medium was removed; the cell monolayer was washed twice with sterile PBS solution; and fresh culture medium was added to the microplate wells. After 48 h of cell culture, the MTT test was performed. A volume of 50 μL of tetrazolium salt solution (final concentration 0.05 mg/mL) was added to each microplate well. The microplate was placed for 3–4 h (depending on the cell line) in a CO2 incubator. After incubation, 100 μL of DMSO was added to the wells of the microplate to dissolve the purple formazan crystals formed in the living cell environment. The absorbance of the formazan solution, after gentle mixing, was read at a wavelength of λ = 580 nm and a reference wavelength of λ = 720 nm (Biotek Power Wave HT, Biotek Instruments, Winooski, VT, USA). The percentage of living cells was calculated by comparing the absorbance value of the tested samples with the absorbance value of the control (cells not treated with compounds). The absorbance of the control was taken as 100%. […] Moreover, cisplatin (Sigma-Aldrich, St. Louis, MO, USA) was used as a reference compound, and identical incubation conditions were used as described above.

Another data set deals with HT-29. Description: MTT cell viability assay. Type of data set: cell-based, human. The conditions noted are these: for IC50: HT-29, 24 h incubation with compound, mean ± SD of three experiments, read-out: Cytotoxic effect, IC50; for IC50 difference, HT-29 vs other cell lines: HT-29, difference of IC50 values, read-out: IC50 in HT-29 higher compared to the other cell lines. The procedure: (§2) The cytotoxic activity of the 3-benzylideneflavanones, 3-benzylidenechromanones derivatives (compounds 1, 2, 3, 4, 5) and 5′-(3-methoxyphenyl)-2-phenyl-4′,5′-dihydro-4H-spiro[chromano-3,3′-pirazol]-4-one (compound 3a) was evaluated using the MTT assay (4,5-dimethylthiazol-2-yl)-2,5-diphenyltetrazoliumbromide), a colorimetric method that quantifies cell viability.
as §1
(§3) The appropriate number of cells for a given cell line (6–8 × 10^3 cells/mL) were seeded onto colorless, sterile 96-well microplates (Nunc, Roskilde, Denmark) in the number appropriate for a given cell line. After 24 h of culture, various concentrations of the studied compounds (10^−7–10^−5 M) freshly prepared in DMSO (final concentration DMS < 0.1%) and diluted with complete culture medium were added and incubated in a CO2 incubator for 24 h. After this time, the medium was removed; the cell monolayer was washed twice with sterile PBS solution; and fresh culture medium was added to the microplate wells. After 48 h of cell culture, the MTT test was performed. A volume of 50 μL of tetrazolium salt solution (final concentration 0.05 mg/mL) was added to each microplate well. The microplate was placed for 3–4 h (depending on the cell line) in a CO2 incubator. After incubation, 100 μL of DMSO was added to the wells of the microplate to dissolve the purple formazan crystals formed in the living cell environment. The absorbance of the formazan solution, after gentle mixing, was read at a wavelength of λ = 580 nm and a reference wavelength of λ = 720 nm (Biotek Power Wave HT, Biotek Instruments, Winooski, VT, USA). The percentage of living cells was calculated by comparing the absorbance value of the tested samples with the absorbance value of the control (cells not treated with compounds). The absorbance of the control was taken as 100%.

The subject of another data set is Caco-2. Description: MTT cell viability assay. The class given is cell-based, human. The conditions noted are these: 24 h incubation with compound, mean ± SD of three experiments, read-out: Cytotoxic effect, IC50. As for the experimental part: as §2, §1, §3
The subject of a further data set is SW620. Description: Intracellular GSH level, monochlorobimane (MCB) probe. The class given is cell-based, human. The settings on record: compound at IC50, 24 h, vs control. As for the experimental part: (§4) The spectrofluorimetric method with monochlorobimane (MCB; Sigma-Aldrich; St. Louis, MO, USA) was used to determine GSH. Monochlorobimane reacts with glutathione in a reaction catalyzed by cellular glutathione S-transferase. The reaction produces a fluorescent bimane-glutathione conjugate (GSH-MCB). A major advantage of MCB is its ability to penetrate the cell membrane, which is why it is used as a probe to determine the amount of GSH in living cells.
(§5) Cells were seeded in black 96-well fluorometric microplates at a density of 10 × 10^3 cells/mL. […] Following compound incubation, the medium was removed, and the cell monolayers were washed twice with HBSS (140 mM NaCl, 5 mM KCl, 0.8 mM MgCl2, 1.8 mM CaCl2, 1 mM Na2HPO4, 10 mM HEPES, and 1% glucose). A solution of MCB at a final concentration of 40 μM was added to each well and incubated in a CO2 cell culture incubator at 37 °C for 20 min. A 40 mM MCB stock solution was prepared by dissolving 9 mg of the reagent in 1 mL of absolute ethanol. Fluorescence was measured using a Perkin-Elmer LS-5B spectrofluorometer (Waltham, MA, USA) at the following excitation and fluorescence emission wavelengths: λex = 380 nm/λem = 470 nm. After incubation with MCB, the cells were lysed with 50 μL of lysis buffer (10 mM TRIS-HCl; pH 8 containing 0.1% Triton X-100). In order to normalize the number of cells in individual samples, the amount of DNA was determined by adding 50 μL of ethidium bromide (EB, final concentration 0.2 mM) to each well after measuring the MCB fluorescence and measuring the EB fluorescence at an excitation wavelength of λex = 530 nm and an emission wavelength of λem = 590 nm. The results obtained using the standard curve were converted to nM of GSH.

A further data set has as its system LoVo. The data set is described as above. The class given is cell-based, human. The conditions noted are these: compound at IC50, 24 h, vs control. The procedure:
as §4, §5

For the compound `COc1cccc(/C=C2/C(=O)c3ccccc3OC2c2ccccc2)c1` (stereo not drawn) [Compound 3], the half-maximal inhibitory concentration (IC50) in data set [1] (Homo sapiens) was 8 to 30 µM; in the data set with HT-29, 117 ± 6.1 µM; in the data set with HT-29 (Homo sapiens, HT-29, 24 h), roughly 115 µM; in the data set on Caco-2, 69.9 ± 5.1 µM; in the data set on Caco-2 (Homo sapiens, Caco-2, 24 h) it was roughly 70 µM. The “Decrease in GSH levels” value is recorded as 30% with SW620 and 30–35% in the data set with LoVo.
As for `O=C1/C(=C/c2ccccc2)COc2ccccc21` [Compound 1], the IC50 in data set [1] (Homo sapiens) was 8 to 30 µM; in data set [1], 8 to 20 µM; with HT-29 (Homo sapiens, HT-29, 24 h), 21.1 ± 1.3 µM; with Caco-2 (Homo sapiens, Caco-2, 24 h), 10.2 ± 1.8 µM. Also, the IC50 difference, HT-29 vs other cell lines with HT-29 (Homo sapiens) is roughly 10 µM. The “Decrease in GSH levels” value is 40% in the data set on SW620 and 30–35% in the data set on LoVo.
For the compound `O=C1/C(=C/c2ccccc2)C(c2ccccc2)Oc2ccccc21` (stereo not drawn) [Compound 5], the half-maximal inhibitory concentration (IC50) in data set [1] (Homo sapiens) is 8 to 30 µM; with HT-29 (Homo sapiens, HT-29, 24 h), 31.1 ± 1.4 µM; in the data set on Caco-2 it was 72.1 ± 1.7 µM; in the data set on Caco-2 (Homo sapiens, Caco-2, 24 h) it was roughly 70 µM. The IC50 difference, HT-29 vs other cell lines in the data set with HT-29 (Homo sapiens) was roughly 10 µM. The “Decrease in GSH levels” value is 30% in the data set on SW620 and 30–35% with LoVo.

Values taken from article PMC11641365, “Evaluation of In Vitro Biological Activity of Flavanone/Chromanone Derivatives: Molecular Analysis of Anticancer Mechanisms in Colorectal Cancer” (International Journal of Molecular Sciences, 2024).
